# Data reported in patent US20180353445A1, “METHODS AND COMPOSITIONS RELATING TO PROTEASOME INHIBITOR RESISTANCE” (Whitehead Institute for Biomedical Research, priority 2017, published 2018).
# “Also recorded” adds a separate entry of the source.
# Key:
# [1] = test system: MCF7, HEK293 and T47D cells; assay: Viability of cells grown in glucose (glycolytic) vs galactose (Hi-OXPHOS); type: cell-based, human; conditions: screen
# Experimental: FIGS. 40A-40D: Cancer cell metabolism alters sensitivity to elesclomol.
# FIGS. 41A-41B: Cancer cell metabolism alters sensitivity to elesclomol.
# FIGS. 51A-51D: Elesclomol preferentially targets cells in the Hi-OXPHOS state. […] The relative cell growth (color coded) was analyzed 72 hours post compound addition. Plotted are the mean SD of at least three replicas and the calculated EC50s (FIGS. 51B-51C). […] Reactive groups are indicated with a colored circle.
# FIGS. 57A-57C: Elesclomol preferentially targets cells in the Hi-OXPHOS state. […] Analogs named compound 1-6. […] Plotted are the mean SD of at least three replicas and the calculated EC50s (FIG. 57A and FIG. 57C).
# T47D cells [2] = assay: The glucose/galactose drug screen; type: cell-based, human; conditions: 10 mM Glucose or Galactose, Selleck anti cancer and natural product libraries
# Experimental: We conducted a second set of drug screens to identify unique sensitivities conferred by the Hi-OXPHOS state using parental T47D breast cancer cells (without 19S subunit suppression). For this screen, we used the NPC and CDL libraries as they contained the greatest number of hits in the Lo19S screen. We tested over 800 compounds at multiple concentrations and measured their effects on relative cell growth/viability when cells were grown under aerobic glycolysis conditions (glucose-supplemented medium) or forced mitochondrial respiration conditions (galactose-supplemented medium).
# The glucose/galactose drug screen—T47D cells growing in regular media were collected counted and after centrifugation cells were re-suspended in RPM1 media without glucose containing 10% dialyzed serum with the addition of either 10 mM glucose or 10 mM galactose, Cells were then plated at 1000 cells/well in 384-well opaque, white assay plates (Coming, N.Y.), 50 uL per well, and incubated overnight at 37°C./5% CO2. Application of the drug libraries and cell viability was executed as described above for the Lo19S drug screen.
# T47D cells [3] = assay: Competition co-culture of TurboRFP PSMD2 shRNA and GFP control shRNA T47D cells, FACS/microscopy; type: cell-based, human; conditions: 1:10 plating ratio, panel of proteasome inhibitors
# Experimental: We created two cell lines—one line that expresses red fluorescent protein (turboRFP) and the doxycycline-inducible PSMD2-targeting shRNA and another line that expresses green fluorescent protein (GFP) and a doxycycline-inducible control shRNA (FIG. 6A). First, we induced shRNA expression with doxycycline for 48 hours. After recovery, we mixed shPSMD2-RFP and shControl-GFP cells at different ratios (either 1:1, 1:2, 1:5 or 1:10), adding the cells with reduced PSMD2 as the minority subpopulation. Twenty-four hours after plating, we treated these mixed populations of cells for 48 hours with increasing concentrations of bortezomib (5, 7.5 or 10 nM). We allowed the cells to recover in the absence of bortezomib and then we quantified the red and green cells by FACS analysis (FIG. 6A) and captured representative images by fluorescence microscopy (FIG. 6B),
# The experiment described in Example 10 was repeated with minor differences using a panel of different proteasome inhibitors: MLN2238, MLN9708, and oprozomib T47D cells harboring a doxycycline inducible control shRNA (GFP) or a doxycycline-inducible PSMD2 shRNA (TurboRFP) were incubated with doxycycline for 3 days. Cells were collected, counted, and plated at a 1:10 ratio of TurboRFP-expressing PSMD2 shRNA cells/GFP expression control shRNA cells in the absence of Dox. Proteasome inhibitors were added at the specified concentrations and cells were maintained in culture. Cells were allowed to recover in the absence of the proteasome inhibitor and then analyzed by FACS (FIG. 8B, top) or visualized by microscopy (FIG. 8B, bottom). In the absence of proteasome inhibitors, the initial plating ratio of these cells (1:10) was maintained over the duration of the experiment (FIG. 8B). […]
# Visualization and FACS analysis of GFP/RFP levels—cells were trypsinized in 100 μL Accumax® solution and further diluted into 100 μl PBSx1. The number of cells with red or areen fluorescent proteins was measured by MACSQuant® VYB according to manufactures protocol. […]
# [4] = test system: T47D cells with doxycycline inducible PSMD2 KD (Lo19S) versus control cells; assay: Lo19S T47D drug screen (PSMD2 KD versus control cells, CellTiter-Glo); type: cell-based, human; conditions: T47D, Lo19S state by dox-inducible PSMD2 shRNA; compound library screen; 72 h; CellTiter-Glo
# Experimental: The effect of each drug on viability of cells was calculated by averaging the duplicate experiments. The data is plotted in FIG. 16 as the log2 of the ratio of viability of PSMD2 KD versus control cells (log2 (shPSMD2/Control)). […] The Selleck natural product library (NPC) comprising 502 compounds in 5 doses and the. NIH bioactive compound library that includes 731 compounds in 4 doses were also screened using the same system.
# A deeper understanding of the proteasome inhibitor resistant state could yield insights into the molecular mechanisms activated by cells to cope with proteotoxic stress and elucidate new therapeutic strategies for cancer. With these goals in mind, we screened mechanistically diverse small molecule libraries to identify compound sensitivities altered by the Lo19S and Hi-OXPHOS states. An initial screen was conducted in the isogenic T47D model with transient induction of the Lo19S state as described above, We evaluated >4300 mechanistically well-defined compounds within 4 libraries. The compounds included approved cancer drugs (Selleck anti-cancer library: CDL), common natural products (Natural product library: NPC) and an ^-NIH bioactives library (NIH). Each of these compounds was tested at ≥4 concentrations. (Table S5, data not shown), An additional 2866 compounds from the Boston University's Chemical Methodology and Library Development (CMLD-BU) small molecule collection was screened at a single dose (BULL, see Table S5).
# (§1) Generation of the Lo19S T47D cell line—For the generation of the T47D Tet-inducible PSMD2 knockdown cell line—the TRIPZ vector with an inducible shRNA targeting PSMD2 was purchased from Dharmacon (clone V3THS_403760). It was introduced to the T47D cells according to manufactures protocol and cells were selected with puromycin 1 g/ml for one week. The cells were exposed to doxycycline for 24 hours and cells were FACS sorted for the top 10% of most RFP expressing cells (highest expression of shRNA). The cells were further cultured in the absence of doxycycline and PSMD2 knockdown was induced as specified in the text.
# After 48 hours the cells were collected counted and plated (in the absence of dox) at 1000 cells/well in 384-well opaque, white assay plates (Coming, NY), 50 uL per well, and incubated overnight at 37° C./5% CO2. Compound stocks from the Cancer drug library containing 349 bioactive compounds that were arrayed in dose 10 nM, 100 nM, 1 uM, 10 uM (Selleck anti-cancer compound library L3000), the natural products library containing 502 compounds that were utilized in 5 doses (dilution of 1:1000 of 2ug/ml, 0.2 ug/ml, 0.002/ug/ml, 0.0002 ug/ml), the NIH bioactive library including 731 drugs in dose of 10 nM, 100 nM, 1 uM, 10 uM and the Boston University's CMLD (Chemical Methodology and Library Development) compound deck containing 2866 compounds in one dose (10 uM), including novel chemotypes that uniquely probe three-dimensional space by employing stereochemical and positional variation within the molecular framework as diversity elements in library design. 50 nl of compounds were pin-transferred (V&P Scientific, CA, pin tool mounted onto Tecan Freedom Evo 150 MCA96 head, Tecan, Calif.) into duplicate assay plates and incubated for 72 h. The DMSO content was 0.1% within each well, Per plate, there are 32 wells of DMSO vehicle control and 32 wells of positive control compounds. After three days of incubation, 10 uL of CellTiter-Glo (Promega, Wis.) was added to each well, incubated for 10 minutes and the luminescence output was read on the M1000 Infinite Pro plate reader (Tecan, Calif.).
# FDX1 = molecular target: T1, FDX1 (Homo sapiens, UniProt P10109); assay: In vitro Fe-S cluster assembly with reduced FDX1 (absorbance at 456 nm); type: biochemical; conditions: x5 concentration relative to enzyme
# T1 construct: made in house
# T1 sequence (P10109 62-184): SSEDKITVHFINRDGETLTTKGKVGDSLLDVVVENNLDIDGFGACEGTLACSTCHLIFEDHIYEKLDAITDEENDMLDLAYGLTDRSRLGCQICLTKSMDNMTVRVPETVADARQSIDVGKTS
# Text: FIGS. 47A-47C: Inhibition of Fe—S formation by elesclomol and variants (in-vitro). […] Note: “x(number) concentration” means that the indicated compound was present at 5 times the concentration of the enzyme.
# (FIG. 53A) provides a schematic describing mitochondrial Fe—S cluster biosynthesis. The mitochondrial ISC (iron-sulfur cluster) core complex contains the scaffold protein ISCU and cysteine desulfurase (ACP-ISD11-NFS1)2. The latter catalyzes the conversion of cysteine to alanine and generates S° for iron sulfur cluster assembly. S° is reduced by FDX1. A [2Fe-2S] cluster is subsequently formed on ISCU. […] In vitro Fe—S cluster assembly was carried out with reduced. FDX1 as the reducing agent in the presence or absence of either 5× (green) or 10× (yellow) elesclomol (both relative to FDX1). Fe—S cluster formation was monitored by following the increase of absorbance at 456 nm. […] The red triangle denotes an NMR peak that became severely broadened. […] The [2Fe-2S] cluster in FDX1 is indicated by spheres.
# The in vitro Fe—S cluster assembly was carried out with reduced FDX1 as the reducing agent and detected by following the increase of absorbance at 456 tun following the addition of either of 5× (green) or 10× (yellow, both relative to FDX1) compound-1. […] Fe—S formation was monitored by following the increase of absorbance at 456 nm. […] Cysteine desulfurase activity assay carried out with the indicated concentrations of elesclomol.
# T47D cells [5] = assay: Cell viability, T47D cells with doxycycline-inducible PSMD2 shRNA (KD) vs control; type: cell-based, human; conditions: T47D, transient PSMD2 reduction
# Experimental: FIGS. 37A-37E: Subunit suppression results in highly specific drug sensitivity alteration. Schematic representation of the drug screen setup. (FIG. 37A) 147D cells harboring a doxycycline-inducible PSMD2 shRNA were grown in the presence or absence of doxycycline for 48 hr. Cells were then collected, washed, and plated in the absence of doxycycline for 24 hr prior to exposure different compounds. Relative cell numbers were measured 3 days later. […] (FIGS. 37C-37E) The relative viability of the PSMD2 knockdown (KD) versus the control was calculated for replica experiments and the log2 of the ratio is plotted for 349 compounds from the Selleck anti-cancer L3000 drug library that were tested in 4 concentrations (FIG. 37C), the Selleck natural product library (NPC) comprising 502 compounds in 5 doses (FIG. 37D), and the NIH bioactive compound library that includes 731 compounds in 4 doses (FIG. 37E). Specific compounds are annotated.
# The effect of transient PSMD2 reduction on growth of T47D cells in the presence of different proteasome inhibitors (bortezomib, MLN9708, carfilzomib, oprozornib) was tested. T47D cells harboring a doxycycline inducible control shRNA (GFP) or a doxycycline-inducible PSMD2 shRNA (TurhoRFP) were incubated with doxycycline for 3 days. Cells were then split and grown in the absence of Dox and proteasome inhibitors were then added at various concentrations. Cells were maintained in culture and then counted.
# as §1, with “For” for “Generation of the Lo19S T47D cell line—For”, “line- the” for “line—the”, “Dhannacon” for “Dharmacon”, “μg/ml” for “g/ml”, “relevant Examples. The TRIPZ control GFP vector was created by removing the turboRFP from the TRIPZ control vector by digestion with Agel and ClaI and replacing it with GFP amplified with primers flanking with Agel and Clal restriction sites.” for “text.”
# Cell Viability Assay—Relative cell growth and survival were measured in 96-well microplate format in the shRNA experiments and in 384 well format in the drug toxicity assays, by using the fluorescent detection of resazurin dye reduction as an endpoint (544 nm excitation and 590 run emission). 2,500 cells in 96 wells format or 1,000 cells in 384 well format were plated 24 hours before compound exposure (for 72 hours or indicated time). Each analysis was performed at least with three replicas.
Compound,relative viability change of cells grown in glucose versus galactose (T47D cells [2]),shift of surviving population toward PSMD2 shRNA cells (T47D cells [3]),other results
O=C(/C=C/c1cccnc1)NCCCCC1CCN(C(=O)c2ccccc2)CC1 [APO866],predominantly more sensitive; also recorded: strongest hits in this screen,–,targeting of glycolytic cancer cells [1]: preferentially targets glycolytic cancer cells
CC(C)C[C@H](NC(=O)CNC(=O)c1cc(Cl)ccc1Cl)B(O)O [MLN2238],strongest hits in this screen,substantially shifted the populations of surviving cells,viability of PSMD2 KD versus control cells (log2 (shPSMD2/Control)) [4]: selectively reduce viability of control cells versus PSMD2 KD cells
CN(NC(=O)CC(=O)NN(C)C(=S)c1ccccc1)C(=S)c1ccccc1 [SAT-4783],–,–,in vitro formation of Fe-S clusters mediated by FDX1 (FDX1): inhibition
COC[C@H](NC(=O)c1cnc(C)s1)C(=O)N[C@@H](COC)C(=O)N[C@@H](Cc1ccccc1)C(=O)[C@@]1(C)CO1 [oprozomib],–,substantially shifted the populations of surviving cells,resistance of cells harboring PSMD2 shRNA vs parental line (EC50) (T47D cells [5]): EC50 values increased considerably
